Several values for one entry are separate records, joined by “and”; a condition that tells them apart may be missing. Identical values can stand only once.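 Interpolation was linear, between the two tested concentrations surrounding the appropriate level; five concentrations were tested over 48 hours in 96-well plates. GI50: concentration for 50% inhibition of growth. TGI: concentration producing complete growth inhibition.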
What was measured:
Assay in all cases: inhibition of tumour cell growth, NCI panel, 48 h
KM20L2 colon = tested on: KM20L2 colon
NCI-H522 lung = tested on: NCI-H522 lung
KM12 colon = tested on: KM12 colon
U251 CNS = tested on: U251 CNS
SNB-75 CNS = tested on: SNB-75 CNS
EKVX NSCLC = tested on: EKVX NSCLC
MALME-3M melanoma = tested on: MALME-3M melanoma
SF-295 CNS = tested on: SF-295 CNS
DLD-1 colon = tested on: DLD-1 colon
HCT-15 colon = tested on: HCT-15 colon

COC(=O)c1cccn1C(=O)n1cccc1
TGI (KM20L2 colon): > 100 µM | TGI (NCI-H522 lung): > 100 µM | TGI (KM12 colon): > 100 µM | TGI (U251 CNS): > 100 µM | TGI (SNB-75 CNS): > 100 µM | TGI (EKVX NSCLC): > 100 µM | TGI (MALME-3M melanoma): > 100 µM | TGI (SF-295 CNS): > 100 µM | TGI (DLD-1 colon): > 100 µM

O=C(CCN1CCN(c2ccccc2)CC1)N1CCc2c([nH]c3ccccc23)C1c1cccnc1 (centres undefined)
TGI (KM20L2 colon): 29.5 µM | TGI (NCI-H522 lung): 30 µM | TGI (HCT-15 colon): 30.9 µM | TGI (KM12 colon): 36.7 µM | TGI (U251 CNS): 30 µM | TGI (SNB-75 CNS): 53.3 µM | TGI (EKVX NSCLC): 34.7 µM | TGI (MALME-3M melanoma): 39.2 µM | TGI (DLD-1 colon): 36.2 µM

CC(=O)OC[C@@H](COC(=O)/C=C/c1ccc(O)cc1)OC1OC(CO)C(O)C(O)C1O (some centres undefined)
TGI (KM20L2 colon): > 100 µM | TGI (NCI-H522 lung): > 100 µM | TGI (HCT-15 colon): > 100 µM | TGI (KM12 colon): > 100 µM | TGI (U251 CNS): > 100 µM | TGI (SNB-75 CNS): > 100 µM | TGI (EKVX NSCLC): > 100 µM | TGI (MALME-3M melanoma): > 100 µM | TGI (SF-295 CNS): > 100 µM | TGI (DLD-1 colon): > 100 µM

CCOC(=O)N1CCC(=O)C(CNC23CC4CC(CC(C4)C2)C3)C1 (centres undefined)
TGI (KM20L2 colon): > 100 µM | TGI (NCI-H522 lung): 34 µM | TGI (KM12 colon): > 100 µM | TGI (U251 CNS): > 100 µM | TGI (EKVX NSCLC): > 100 µM | TGI (MALME-3M melanoma): 37.7 µM | TGI (SF-295 CNS): > 100 µM | TGI (DLD-1 colon): 46.4 µM

CC(=O)C1C(c2ccc(N(C)C)cc2)c2cc3c(cc2OC1(C)O)OCO3 (centres undefined)
TGI (KM20L2 colon): 26.6 µM | TGI (HCT-15 colon): > 100 µM | TGI (U251 CNS): > 100 µM | TGI (SNB-75 CNS): 68.2 µM | TGI (EKVX NSCLC): > 100 µM | TGI (MALME-3M melanoma): > 100 µM | TGI (SF-295 CNS): 71.2 µM | TGI (DLD-1 colon): > 100 µM

Cc1cccc(C)c1NC(=O)C1C(=O)N(c2c(C)cccc2C)C(=O)/C1=N\N (centres undefined)
TGI (KM20L2 colon): > 100 µM | TGI (NCI-H522 lung): > 100 µM | TGI (HCT-15 colon): > 100 µM | TGI (U251 CNS): > 100 µM | TGI (SNB-75 CNS): > 100 µM | TGI (EKVX NSCLC): > 100 µM | TGI (MALME-3M melanoma): > 100 µM | TGI (SF-295 CNS): > 100 µM | TGI (DLD-1 colon): > 100 µM

CN1C(=O)C2C3C=C4c5ccccc5N(c5ccccc5)C4(C2C1=O)[C@H]1C(=O)N(C)C(=O)[C@@H]31 (some centres undefined)
TGI (KM20L2 colon): > 100 µM | TGI (NCI-H522 lung): > 100 µM | TGI (KM12 colon): > 100 µM | TGI (U251 CNS): > 100 µM | TGI (SNB-75 CNS): > 100 µM | TGI (EKVX NSCLC): > 100 µM | TGI (MALME-3M melanoma): > 100 µM | TGI (SF-295 CNS): > 100 µM | TGI (DLD-1 colon): > 100 µM

Oc1ccc2ccccc2c1N=Nc1ccsc1
TGI (KM20L2 colon): > 100 µM | TGI (NCI-H522 lung): > 100 µM | TGI (HCT-15 colon): > 100 µM | TGI (KM12 colon): > 100 µM | TGI (U251 CNS): > 100 µM | TGI (SNB-75 CNS): > 100 µM | TGI (MALME-3M melanoma): > 100 µM | TGI (SF-295 CNS): > 100 µM | TGI (DLD-1 colon): > 100 µM

C[As](C)SCC(COC(=O)C(Cl)c1ccccc1)OC(=O)C(Cl)c1ccccc1 (centres undefined)
GI50 (NCI-H522 lung): 0.361 µM | TGI (NCI-H522 lung): > 38.8 µM | GI50 (HCT-15 colon): 0.229 µM | TGI (HCT-15 colon): 4.02 µM | GI50 (KM12 colon): 2.24 µM | TGI (KM12 colon): 13.5 µM | GI50 (U251 CNS): 3.42 µM | TGI (U251 CNS): 31.6 µM | GI50 (SNB-75 CNS): 10.6 µM | TGI (SNB-75 CNS): 42.6 µM | GI50 (EKVX NSCLC): 2.44 µM | TGI (EKVX NSCLC): 24.3 µM | GI50 (MALME-3M melanoma): 0.139 µM | TGI (MALME-3M melanoma): 1.44 µM | GI50 (SF-295 CNS): 7.79 µM | TGI (SF-295 CNS): 29.1 µM

CC(C)([NH-])CO.CC(C)([NH-])CO.[Cl][Cd][Cl]
GI50 (KM20L2 colon): 30.9 µM | TGI (KM20L2 colon): 79.7 µM | GI50 (NCI-H522 lung): 1.56 µM | TGI (NCI-H522 lung): 3.37 µM | GI50 (HCT-15 colon): 20.3 µM | TGI (HCT-15 colon): 41.4 µM | GI50 (KM12 colon): 36.5 µM | TGI (KM12 colon): > 100 µM | GI50 (U251 CNS): 15.4 µM | TGI (U251 CNS): 28.8 µM | GI50 (MALME-3M melanoma): 8.6 µM | TGI (MALME-3M melanoma): 22.4 µM | GI50 (SF-295 CNS): > 100 µM | TGI (SF-295 CNS): > 100 µM

Cn1cnc([N+](=O)[O-])c1Sc1nccn1-c1cccc2ccccc12
TGI (KM20L2 colon): > 100 µM | TGI (NCI-H522 lung): 22.4 µM | TGI (KM12 colon): > 100 µM | TGI (U251 CNS): > 100 µM | TGI (SNB-75 CNS): 87.5 µM | TGI (EKVX NSCLC): 92.4 µM | TGI (MALME-3M melanoma): 42.2 µM | TGI (SF-295 CNS): > 100 µM | TGI (DLD-1 colon): 98.5 µM

C#Cc1c(/C=C/C(=O)OCC)ccc2ccccc12
GI50 (NCI-H522 lung): 13.4 µM | TGI (NCI-H522 lung): 31.1 µM | GI50 (HCT-15 colon): 9.99 µM | TGI (HCT-15 colon): 97.3 µM | GI50 (KM12 colon): 5.84 µM | TGI (KM12 colon): 23.9 µM | GI50 (U251 CNS): 11.2 µM | TGI (U251 CNS): 31.7 µM | GI50 (SNB-75 CNS): 10.1 µM | TGI (SNB-75 CNS): 40.4 µM | GI50 (EKVX NSCLC): 28 µM | TGI (EKVX NSCLC): 84.3 µM | GI50 (MALME-3M melanoma): 13.1 µM | TGI (MALME-3M melanoma): 41.2 µM | GI50 (SF-295 CNS): 13.3 µM | TGI (SF-295 CNS): 45 µM

C/C(=N\NS(=O)(=O)c1ccc(C)cc1)P(=O)(O)O
TGI (NCI-H522 lung): > 100 µM | TGI (HCT-15 colon): > 100 µM | TGI (KM12 colon): > 100 µM | TGI (U251 CNS): > 100 µM | TGI (SNB-75 CNS): > 100 µM | TGI (EKVX NSCLC): > 100 µM | TGI (MALME-3M melanoma): > 100 µM | TGI (SF-295 CNS): > 100 µM

Cc1ccc(S(=O)(=O)NC2(C=O)CCCC3CCCCC32)cc1 (centres undefined)
TGI (KM20L2 colon): > 100 µM | TGI (NCI-H522 lung): > 100 µM | TGI (HCT-15 colon): > 100 µM | TGI (KM12 colon): > 100 µM | TGI (U251 CNS): > 100 µM | TGI (SNB-75 CNS): > 100 µM | TGI (MALME-3M melanoma): > 100 µM | TGI (DLD-1 colon): > 100 µM

CC(C)=CCC/C(C)=C/CC/C(C)=C/CSc1ccccc1C(=O)O
GI50 (NCI-H522 lung): 21.6 µM | TGI (NCI-H522 lung): 52 µM | GI50 (HCT-15 colon): 28.6 µM | TGI (HCT-15 colon): > 100 µM and 32 µM | TGI (KM12 colon): 35.8 µM and 33.5 µM | GI50 (U251 CNS): 23.4 µM | TGI (U251 CNS): 59.9 µM and 44.5 µM | GI50 (SNB-75 CNS): > 66.4 µM | TGI (SNB-75 CNS): > 100 µM and 42.1 µM | GI50 (EKVX NSCLC): 29.8 µM | TGI (EKVX NSCLC): > 84.9 µM and 45.1 µM | GI50 (MALME-3M melanoma): 25.6 µM | TGI (MALME-3M melanoma): 66.2 µM | GI50 (SF-295 CNS): 25.2 µM | TGI (SF-295 CNS): 60.7 µM and 40 µM

O=C1C=CC(=Nc2cc(Br)c(O)c(Br)c2)C=C1
GI50 (NCI-H522 lung): 3.96 µM | TGI (NCI-H522 lung): 28.8 µM | GI50 (HCT-15 colon): 16.5 µM | TGI (HCT-15 colon): 43.8 µM | GI50 (KM12 colon): 16.9 µM | TGI (KM12 colon): 42.5 µM | GI50 (U251 CNS): 17.8 µM | TGI (U251 CNS): 99.1 µM | GI50 (SNB-75 CNS): 27.5 µM | TGI (SNB-75 CNS): > 100 µM | GI50 (EKVX NSCLC): 52 µM | TGI (EKVX NSCLC): > 100 µM | GI50 (MALME-3M melanoma): 18.4 µM | TGI (MALME-3M melanoma): > 100 µM | GI50 (SF-295 CNS): 27 µM | TGI (SF-295 CNS): 96.2 µM

O=C(Cc1ccc(F)c(F)c1)Nc1cc(C2(C(F)(F)F)CC2)nn1Cc1ccccc1
GI50 (NCI-H522 lung): 3.08 µM | TGI (NCI-H522 lung): 9.89 µM | GI50 (HCT-15 colon): 4.03 µM | TGI (HCT-15 colon): > 15 µM | GI50 (KM12 colon): 4.41 µM | TGI (KM12 colon): > 15 µM | GI50 (U251 CNS): 4.61 µM | TGI (U251 CNS): > 15 µM | GI50 (SNB-75 CNS): 0.747 µM | TGI (SNB-75 CNS): 7.09 µM | GI50 (EKVX NSCLC): 2.98 µM | TGI (EKVX NSCLC): 12.2 µM | GI50 (MALME-3M melanoma): 2.49 µM | TGI (MALME-3M melanoma): 7.85 µM | GI50 (SF-295 CNS): 3.77 µM | TGI (SF-295 CNS): 14.7 µM

C/C(CC(=O)Nc1ccc(C)c(C)c1)=N\NC(N)=O
TGI (KM20L2 colon): > 100 µM | TGI (NCI-H522 lung): > 100 µM | TGI (KM12 colon): > 100 µM | TGI (U251 CNS): > 100 µM | TGI (SNB-75 CNS): > 100 µM | TGI (EKVX NSCLC): > 100 µM | TGI (MALME-3M melanoma): > 100 µM | TGI (SF-295 CNS): > 100 µM | TGI (DLD-1 colon): > 100 µM

O=C(c1ccccc1)C1OC1c1ccc([N+](=O)[O-])cc1 (centres undefined)
GI50 (NCI-H522 lung): 2.13 µM | TGI (NCI-H522 lung): 7.11 µM | GI50 (HCT-15 colon): 4.28 µM | TGI (HCT-15 colon): > 100 µM | GI50 (KM12 colon): 3.83 µM | TGI (KM12 colon): 17.7 µM | GI50 (U251 CNS): 9.86 µM | TGI (U251 CNS): > 100 µM | GI50 (SNB-75 CNS): 2.92 µM | TGI (SNB-75 CNS): 72.7 µM | GI50 (EKVX NSCLC): 22.8 µM | TGI (EKVX NSCLC): > 100 µM | GI50 (MALME-3M melanoma): 6.22 µM | TGI (MALME-3M melanoma): > 100 µM | GI50 (SF-295 CNS): 4.76 µM | TGI (SF-295 CNS): 46 µM

Source: PubChem BioAssay (NCI)
